Tests used:
[1] = system: Staphylococcus aureus L165; conditions: Iso-Sensitest broth, inoculum 10^4 CFU/ml, 20-24 h, 37° C.
[2] = system: Haemophilus influenzae ATCC 19418; conditions: Brain Heart Infusion broth +1% Supplement C, inoculum 10^4 CFU/ml, 48 h, 37° C., 5% CO2 in air
[3] = system: Bacteroides fragiles ATCC 25285; conditions: Wilkins-Chalgren broth, inoculum 10^5, 48 h, 37° C., N2:CO2:H2 (80:10:10)
Escherichia coli L47 = conditions: Iso-Sensitest broth, inoculum 10^4 CFU/ml, 20-24 h, 37° C.
[4] = system: Propionibacterium acnes ATCC 6919; test: MIC by broth microdilution; type: cell-based; conditions: Wilkins-Chalgren broth, inoculum 10^5, 48 h, 37° C., N2:CO2:H2 (80:10:10)
[5] = system: Pseudomonas aeruginosa ATCC 10145; conditions: Iso-Sensitest broth, inoculum 10^4 CFU/ml, 20-24 h, 37° C.
Candida albicans L145 = conditions: phosphate buffered Yeast Nitrogen Base broth with glucose and L-asparagine, inoculum 10^4 CFU/ml, 20-24 h, 37° C.
[6] = system: Staphylococcus epidermidis ATCC 12228; conditions: Iso-Sensitest broth, inoculum 10^4 CFU/ml, 20-24 h, 37° C.
[7] = system: Proteus vulgaris ATCC 881; conditions: Iso-Sensitest broth, inoculum 10^4 CFU/ml, 20-24 h, 37° C.
[8] = system: Staphylococcus aureus Smith; test: MIC by broth microdilution; type: cell-based; conditions: Iso-Sensitest broth, inoculum 10^4 CFU/ml, 20-24 h, 37° C.
[9] = system: Clostridium perfringens L290; conditions: Wilkins-Chalgren broth, inoculum 10^5, 48 h, 37° C., N2:CO2:H2 (80:10:10)
[10] = system: Staphylococcus haemolyticus L602; conditions: Iso-Sensitest broth, inoculum 10^4 CFU/ml, 20-24 h, 37° C.
[11] = system: Neisseria gonorrhoeae L997; conditions: GC Base broth +1% IsoVitalex, inoculum 10^4 CFU/ml, 48 h, 37° C., 5% CO2 in air
[12] = system: Enterococcus faecalis ATCC 7080; test: MIC by broth microdilution; type: cell-based; conditions: Iso-Sensitest broth, inoculum 10^4 CFU/ml, 20-24 h, 37° C.

In the case of Cc1oc2nc1C(=O)NC(CC(N)=O)c1nc(cs1)C(=O)NC(Cc1ccccc1)C1=NC(CS1)C(=O)NC(Cc1ccc(O)cc1)C(=O)N1C(O)CC(C)C1c1nc(cs1)-c1nc(cs1)-c1nc(-c3nc(C(N)=O)cs3)ccc1-2 (stereo not shown) [GE37468B], the M.I.C. [1] is reported as 0.03 microgram/ml, the M.I.C. [2] is reported as over 128 microgram/ml and the M.I.C. [3] is reported as over 128 microgram/ml. For the same molecule, the M.I.C. (Escherichia coli L47) was over 128 microgram/ml, the M.I.C. [4] was 0.016 microgram/ml and the M.I.C. [5] was over 128 microgram/ml. For the same molecule, the M.I.C. (Candida albicans L145) was over 128 microgram/ml, the M.I.C. [6] was 0.06 microgram/ml and the M.I.C. [7] was over 128 microgram/ml. The M.I.C. [8] was 0.03 microgram/ml, the M.I.C. [9] was 0.016 microgram/ml and the M.I.C. [10] was 0.13 microgram/ml. The M.I.C. [11] was over 128 microgram/ml and the M.I.C. [12] was 0.03 microgram/ml.

For C=C(NC(=O)c1csc(-c2ccc3c(n2)-c2csc(n2)-c2csc(n2)C2C(C)CC(O)N2C(=O)C(Cc2ccc(O)cc2)NC(=O)C2CSC(=N2)C(Cc2ccccc2)NC(=O)c2csc(n2)C(CC(N)=O)NC(=O)c2nc-3oc2C)n1)C(N)=O (stereo not shown) [GE37468C], the M.I.C. [1] was 0.03 microgram/ml, the M.I.C. [2] was over 128 microgram/ml and the M.I.C. [3] was over 128 microgram/ml. The M.I.C. (Escherichia coli L47) was over 128 microgram/ml, the M.I.C. [4] was 0.016 microgram/ml and the M.I.C. [5] was over 128 microgram/ml. For the same molecule, the M.I.C. (Candida albicans L145) was over 128 microgram/ml, the M.I.C. [6] was 0.25 microgram/ml and the M.I.C. [7] was over 128 microgram/ml. It also gave a M.I.C. [8] of 0.03 microgram/ml, a M.I.C. [9] of 0.016 microgram/ml and a M.I.C. [10] of 0.13 microgram/ml. It also gave a M.I.C. [11] of over 128 microgram/ml and a M.I.C. [12] of 0.03 microgram/ml.

From patent US5610143A, “Antibiotics GE 37468 A, B and C” (Gruppo Lepetit S.p.A., priority 1995, dated 1997)
